Test results as given in article PMC9979702 (Bioorganic & Medicinal Chemistry Letters, 2023).

Assays:
SARS-CoV-2 = type: cell-based; details: Vero cells
hERG = hERG (Homo sapiens, UniProt Q12809); details: even at 100 µM
hERG, sequence (Q12809 whole entry): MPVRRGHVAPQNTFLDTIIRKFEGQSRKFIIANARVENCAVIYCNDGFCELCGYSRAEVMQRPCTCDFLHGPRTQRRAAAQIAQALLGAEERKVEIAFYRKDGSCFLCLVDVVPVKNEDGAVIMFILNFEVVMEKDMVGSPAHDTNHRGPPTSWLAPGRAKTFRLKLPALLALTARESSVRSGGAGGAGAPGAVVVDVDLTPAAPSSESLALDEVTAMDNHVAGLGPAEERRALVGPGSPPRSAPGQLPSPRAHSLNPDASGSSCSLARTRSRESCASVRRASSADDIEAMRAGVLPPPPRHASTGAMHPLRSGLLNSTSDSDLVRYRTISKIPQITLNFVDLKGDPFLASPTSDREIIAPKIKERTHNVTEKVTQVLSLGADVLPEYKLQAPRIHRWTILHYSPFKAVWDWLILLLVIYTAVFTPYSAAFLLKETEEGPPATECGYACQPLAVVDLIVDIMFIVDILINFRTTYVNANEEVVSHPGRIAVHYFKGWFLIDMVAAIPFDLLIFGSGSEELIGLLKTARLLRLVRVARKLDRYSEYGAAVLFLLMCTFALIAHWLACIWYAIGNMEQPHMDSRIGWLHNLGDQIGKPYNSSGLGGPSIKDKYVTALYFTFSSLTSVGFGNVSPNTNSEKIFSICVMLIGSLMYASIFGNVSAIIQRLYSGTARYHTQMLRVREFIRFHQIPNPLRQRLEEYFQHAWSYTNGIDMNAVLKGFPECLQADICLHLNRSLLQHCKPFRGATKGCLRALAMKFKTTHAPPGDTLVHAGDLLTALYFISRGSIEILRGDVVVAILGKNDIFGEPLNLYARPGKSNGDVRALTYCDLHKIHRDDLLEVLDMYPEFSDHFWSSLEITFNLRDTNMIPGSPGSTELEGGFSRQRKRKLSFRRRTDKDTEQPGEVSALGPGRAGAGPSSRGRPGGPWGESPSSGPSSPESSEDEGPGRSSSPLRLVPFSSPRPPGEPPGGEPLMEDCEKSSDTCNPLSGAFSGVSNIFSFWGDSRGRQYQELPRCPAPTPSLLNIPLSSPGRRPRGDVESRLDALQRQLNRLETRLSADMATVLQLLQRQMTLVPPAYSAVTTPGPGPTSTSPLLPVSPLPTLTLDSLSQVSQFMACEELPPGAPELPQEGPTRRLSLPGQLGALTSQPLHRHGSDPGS

SMILES | antiviral activity against SARS-CoV-2 (in words) (SARS-CoV-2) | hERG binding (in words) (hERG)
CN(C)CCCNc1[nH]c2cc(Cl)ccc2c(=O)c1C(=O)O [Compound 7a, 7-chloro-2-((3-(dimethylamino)propyl)amino)-4-oxo-1,4-dihydroquinoline-3-carboxylic acid] | no activity | –
O=C(O)c1c(Nc2cccc(F)c2)[nH]c2cc(Cl)ccc2c1=O [Compound 9b, 7-chloro-2-((3-fluorophenyl)amino)-4-oxo-1,4-dihydroquinoline-3-carboxylic acid] | – | no hERG binding was detected
O=C(O)c1c(Nc2cccc(F)c2)[nH]c2cc(F)c(F)cc2c1=O [Compound 9f, 6,7-difluoro-2-((3-fluorophenyl)amino)-4-oxo-1,4-dihydroquinoline-3-carboxylic acid] | had antiviral activity | –
O=c1cc(Nc2cccc(F)c2)[nH]c2cc(F)c(F)cc12 [Compound 10, 6,7-difluoro-2-((3-fluorophenyl)amino)quinolin-4(1H)-one] | no activity | –
